# Earlier results as cited in patent US6107296A, “Neuroprotective use of triazolo-pyridazine derivatives” (Merck Sharp & Dohme, Ltd., priority 1997, dated 2000).
# What was measured:
# [1] = tested on: selectively vulnerable neuronal populations in the gerbil forebrain; settings: gerbil forebrain ischemia model
# [2] = tested on: GABAA receptor subtypes containing the α1 and α3 or α5 subunits
# [3] = tested on: GABAA receptor subtypes containing the α1 and α3 or α5 subunits; settings: partial agonist at each of the α1, α3 or α5 containing receptors
structure (smiles),measurement,setting,value
C[C@@H]1CN(C(=O)c2cc3c(C(=O)OC(C)(C)C)ncn3c3ccc(Cl)cc23)C[C@H](C)N1 [PNU-101017],neuronal survival,[1],dose-related increase in neuronal survival
same,affinity for GABAA receptor subtypes,[2],high affinity
same,intrinsic activity relative to the full agonist diazepam,[3],approximately 50%
